Data from the NIST ThermoML archive (doi:10.1021/je300083m).
± gives the expanded uncertainty stated by the source.

Assay: mn = molality of the nth substance listed, in mol/kg
Conditions: 101 kPa, Liquid, m1 = 0.512

Row | Compound | mass density (298.15 K) | mass density (303.15 K) | mass density (308.15 K) | mass density (313.15 K) | mass density (318.15 K) | mass density (323.15 K)
1 | O=[N+]([O-])[O-].[K+] [potassium nitrate] + O | 1027.98 ± 0.22 kg/m3 | 1026.22 ± 0.22 kg/m3 | 1024.1 ± 0.21 kg/m3 | 1022.05 ± 0.21 kg/m3 | 1020.2 ± 0.21 kg/m3 | 1018.2 ± 0.2 kg/m3
2 | O=S(=O)([O-])[O-].[K+].[K+] [potassium sulfate] + O | 1063.81 ± 0.3 kg/m3 | 1062.02 ± 0.29 kg/m3 | 1060.06 ± 0.29 kg/m3 | 1057.74 ± 0.29 kg/m3 | 1055.14 ± 0.28 kg/m3 | 1052.95 ± 0.28 kg/m3
